Assay results from ChEMBL document CHEMBL1122212, “Substance P” (1982).
Square brackets hold non-standard residues; d marks the D form. Peptide text beside a SMILES is read from it. pGlu = O=C1CC[C@@H](C(=O)O)N1

Key:
[1] = species on record: Cavia porcellus; assay: Potency of compound was determined for contraction of guinea pig ileum relative to substance P(=1); format: functional
[2] = species on record: Cavia porcellus; assay: Potency of compound was determined for contraction of guinea pig vas deferens relative to substance P(=1); format: functional
[3] = species on record: Rattus norvegicus; assay: Potency of compound was determined in rat duodenum relative to substance E; format: functional
[4] = species on record: Rattus norvegicus; assay: Potency of compound was determined in rat vas deferens relative to substance E; format: functional
[5] = species on record: Rattus norvegicus; assay: Potency of compound was determined for contraction of rat bladder relative to substance P(=1); format: functional
[6] = system: Cricetinae gen. sp.; assay: Potency of compound was determined in hamster bladder relative to substance E; format: functional
[7] = target: Substance-P receptor (Rattus norvegicus) (UniProt P14600); assay: Potency for [3H]SP binding to Tachykinin receptor 1 in rat brain central nervous system (CNS); format: tissue-based
Sequence of Substance-P receptor (Rattus norvegicus) (P14600 whole entry): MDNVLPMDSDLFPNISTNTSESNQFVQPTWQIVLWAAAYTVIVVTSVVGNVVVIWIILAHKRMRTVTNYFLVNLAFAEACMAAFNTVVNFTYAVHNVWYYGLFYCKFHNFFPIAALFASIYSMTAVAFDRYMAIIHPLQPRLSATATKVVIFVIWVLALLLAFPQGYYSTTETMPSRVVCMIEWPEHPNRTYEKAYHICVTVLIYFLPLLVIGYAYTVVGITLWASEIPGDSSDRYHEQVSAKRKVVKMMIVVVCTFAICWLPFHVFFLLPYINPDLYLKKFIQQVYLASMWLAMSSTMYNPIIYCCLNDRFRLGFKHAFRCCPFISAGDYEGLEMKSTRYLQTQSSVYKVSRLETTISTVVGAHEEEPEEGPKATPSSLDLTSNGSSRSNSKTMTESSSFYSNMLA

SMILES: CC[C@H](C)[C@H](NC(=O)[C@H](Cc1ccccc1)NC(=O)[C@H](C)NC(=O)[C@H](CC(=O)O)NC(=O)[C@H](CCCCN)NC(=O)[C@H](CO)NC(=O)[C@@H]1CCCN1C(=O)[C@@H]1CCC(=O)N1)C(=O)NCC(=O)N[C@@H](CC(C)C)C(=O)N[C@@H](CCSC)C(N)=O [ELEDOISIN] ([pGlu]PSKDAFIGLM-NH2)
- Potency [1]: 0.9
- Potency [2]: 0.6
- Potency [3]: 13.9
- Potency [4]: 86
- Potency [5]: 0.96
- Potency [6]: 105
- Potency [7]: 0.3
